The target in the test is T1, ETA receptor (ETAR) (Homo sapiens, UniProt P25101).
T1 construct: gene EDNRA
T1 sequence (P25101 21-427): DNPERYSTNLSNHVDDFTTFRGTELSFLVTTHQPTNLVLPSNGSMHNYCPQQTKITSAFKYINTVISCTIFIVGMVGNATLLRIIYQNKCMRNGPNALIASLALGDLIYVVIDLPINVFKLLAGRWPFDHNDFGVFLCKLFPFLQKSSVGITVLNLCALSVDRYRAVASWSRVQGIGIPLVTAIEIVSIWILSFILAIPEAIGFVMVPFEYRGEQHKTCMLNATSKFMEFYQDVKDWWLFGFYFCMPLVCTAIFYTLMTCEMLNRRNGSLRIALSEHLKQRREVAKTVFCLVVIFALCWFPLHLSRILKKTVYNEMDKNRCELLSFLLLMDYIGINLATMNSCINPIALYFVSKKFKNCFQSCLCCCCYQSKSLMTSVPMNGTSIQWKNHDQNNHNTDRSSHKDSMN
In words: […]ET-1 radioligand displacement, recombinant human ETA in CHO-K1 cells. Format: cell-based. The conditions noted are these: read-out: ETAh 10^-5 M ^a.

Square brackets hold non-standard residues; d marks the D form. Peptide text beside a SMILES is read from it.

As to `COc1ccc(CN2C(=O)C[C@H](c3ccc4c(c3)OCO4)[C@H]2C(=O)O)cc1` (racemic) [31h, (±)-trans 3-(1,3-Benzodioxol-5-yl)-1-[(4-methoxyphenyl)methyl]-5-oxo-proline], the Ki was 3300 ± 1100 nM.

With `CC(C)C[C@@H]1NC(=O)[C@@H](C(C)C)NC(=O)[C@@H]2CCCN2C(=O)[C@@H](CC(=O)O)NC(=O)[C@@H](Cc2c[nH]c3ccccc23)NC1=O` [BQ-123] (cyclo(L[dW][dD]P[dV])), the Ki turned out to be 5.4 ± 0.8 nM.

The record behind these values is paper PMC7221592, “Synthesis and Molecular Modelling Studies of New 1,3-Diaryl-5-Oxo-Proline Derivatives as Endothelin Receptor Ligands” (Molecules, 2020).
